{"source": "patent US9066945B2", "about": "“Ectoparasiticidal active substance combinations” (Bayer Intellectual Property GmbH, priority 2010, dated 2015)", "system": "adult fleas (Ctenocephalides felis)", "assay": "In vitro contact test with fleas (coated test tubes)", "conditions": "B-11 alone", "text": "According to S. R. Colby, Weeds 15 (1967), 20-22, the expected action for a given combination of two active compounds can be calculated as follows: if • X is the kill rate, expressed in % of the untreated control, when employing active compound A at an application rate of m g/ha or in a concentration of m ppm, • Y is the kill rate, expressed in % of the untreated control, when employing active compound B at an application rate of n g/ha or in a concentration of n ppm and • E is the kill rate, expressed in % of the untreated control, when employing active compounds A and B at application rates of m and n g/ha or in a concentration of m and n ppm, • then\nIn this case, the actually observed kill rate must exceed the value calculated using the above formula for the expected kill rate (E).\nIn vitro contact tests with ticks and fleas\nFrom Table 1, representatives of important classes of active compounds (component B) were now tested in combination with pyrazine derivatives of the formula (I) according to the invention as component A against arachnids and insects. To this end, roll-necked test tubes were coated with a solution of active compound A or B or a combination of the two in acetone (2 h of swing rotation at 30 rpm in a fume cupboard). […]"}
{"substance": "demiditraz [B-11]", "values": [{"measurement": "insecticidal activity in the contact test method", "value": "no insecticidal activity"}]}
